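Where inhibition never reached the appropriate level, the endpoint shown equals the highest concentration tested. Otherwise, values were interpolated linearly from a five-concentration, 48-hour dose response in 96-well plates. GI50 = concentration required for 50% inhibition of growth. At the TGI there is no net growth.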
What was measured:
Assay in all cases: growth of human tumour cells (NCI), 48 h
HCC-2998 colon = tested on: HCC-2998 colon
UACC-257 melanoma = tested on: UACC-257 melanoma
SK-MEL-28 melanoma = tested on: SK-MEL-28 melanoma
HL-60(TB) leukemia = tested on: HL-60(TB) leukemia
NCI-H226 lung = tested on: NCI-H226 lung
M14 melanoma = tested on: M14 melanoma
SNB-75 CNS = tested on: SNB-75 CNS
SF-539 CNS = tested on: SF-539 CNS
BT-549 breast = tested on: BT-549 breast
EKVX NSCLC = tested on: EKVX NSCLC

Structure (SMILES): Cn1c(=O)c(Oc2ccccc2)cc2cnc(NC3CCOCC3)nc21
- GI50 (HCC-2998 colon): > 25 µM
- TGI (HCC-2998 colon): > 25 µM
- GI50 (UACC-257 melanoma): > 25 µM
- TGI (UACC-257 melanoma): > 25 µM
- GI50 (SK-MEL-28 melanoma): > 25 µM
- TGI (SK-MEL-28 melanoma): > 25 µM
- GI50 (HL-60(TB) leukemia): > 25 µM
- TGI (HL-60(TB) leukemia): > 25 µM
- GI50 (NCI-H226 lung): > 25 µM
- TGI (NCI-H226 lung): > 25 µM
- GI50 (M14 melanoma): > 25 µM
- TGI (M14 melanoma): > 25 µM
- GI50 (SNB-75 CNS): > 25 µM
- TGI (SNB-75 CNS): > 25 µM
- GI50 (SF-539 CNS): > 25 µM
- TGI (SF-539 CNS): > 25 µM
- GI50 (BT-549 breast): > 25 µM
- TGI (BT-549 breast): > 25 µM

Structure (SMILES): NNC(=O)/C(NC(=O)c1ccccc1)=C(\N)c1ccc(Cl)cc1
- TGI (HCC-2998 colon): > 100 µM
- TGI (UACC-257 melanoma): > 100 µM
- TGI (SK-MEL-28 melanoma): > 100 µM
- TGI (EKVX NSCLC): > 100 µM
- TGI (HL-60(TB) leukemia): > 100 µM
- TGI (NCI-H226 lung): > 100 µM
- TGI (M14 melanoma): > 100 µM
- TGI (SNB-75 CNS): > 100 µM
- TGI (SF-539 CNS): > 100 µM

Structure (SMILES): CC(C)CN(CC(C)C)C(=O)C1CCCC[C@@H]1C(=O)O (some centres undefined)
- TGI (HCC-2998 colon): > 100 µM
- TGI (UACC-257 melanoma): > 100 µM
- TGI (SK-MEL-28 melanoma): > 100 µM
- TGI (EKVX NSCLC): > 100 µM
- TGI (HL-60(TB) leukemia): > 100 µM
- TGI (NCI-H226 lung): > 100 µM
- TGI (M14 melanoma): > 100 µM
- TGI (SNB-75 CNS): > 100 µM
- TGI (SF-539 CNS): > 100 µM

Structure (SMILES): CNCCCNCCCN1C(=O)c2ccc3c4c(ccc(c24)C1=O)C(=O)N(CCCNCc1ccccc1OC)C3=O
- GI50 (HCC-2998 colon): 1.93 µM
- TGI (HCC-2998 colon): 6.42 µM
- GI50 (UACC-257 melanoma): 1.35 µM
- TGI (UACC-257 melanoma): 2.72 µM
- GI50 (SK-MEL-28 melanoma): 1.01 µM
- TGI (SK-MEL-28 melanoma): 2.79 µM
- GI50 (HL-60(TB) leukemia): 2 µM
- TGI (HL-60(TB) leukemia): 7.09 µM
- GI50 (NCI-H226 lung): 1.42 µM
- TGI (NCI-H226 lung): 4.63 µM
- GI50 (M14 melanoma): 1.32 µM
- TGI (M14 melanoma): 2.79 µM
- GI50 (SNB-75 CNS): 1.11 µM
- TGI (SNB-75 CNS): 2.51 µM
- GI50 (SF-539 CNS): 0.782 µM
- TGI (SF-539 CNS): 2.29 µM
- GI50 (BT-549 breast): 5.03 µM
- TGI (BT-549 breast): 18.7 µM

Structure (SMILES): NC(CC1=CCC=CC1)C(=O)O (centres undefined)
- TGI (HCC-2998 colon): > 100 µM
- TGI (UACC-257 melanoma): > 100 µM
- TGI (SK-MEL-28 melanoma): > 100 µM
- TGI (EKVX NSCLC): > 100 µM
- TGI (M14 melanoma): > 100 µM
- TGI (SNB-75 CNS): > 100 µM
- TGI (BT-549 breast): > 100 µM

Structure (SMILES): C=CCn1cc(C(=O)NC(=O)NCCCCCOC(=O)CCCCCCCCCCC(=O)OCCCCCNC(=O)NC(=O)c2cn(CC=C)c(=O)n(C)c2=O)c(=O)n(C)c1=O
- TGI (HCC-2998 colon): > 100 µM
- TGI (UACC-257 melanoma): > 100 µM
- TGI (SK-MEL-28 melanoma): > 100 µM
- TGI (EKVX NSCLC): > 100 µM
- TGI (HL-60(TB) leukemia): > 100 µM
- TGI (NCI-H226 lung): > 100 µM
- TGI (M14 melanoma): > 100 µM
- TGI (SNB-75 CNS): > 100 µM
- TGI (SF-539 CNS): > 100 µM

Structure (SMILES): Cc1cccc(C)c1NC(=O)CCc1n[nH]c(=S)o1
- TGI (HCC-2998 colon): > 100 µM
- TGI (UACC-257 melanoma): > 100 µM
- TGI (SK-MEL-28 melanoma): > 100 µM
- TGI (EKVX NSCLC): > 100 µM
- TGI (HL-60(TB) leukemia): > 100 µM
- TGI (NCI-H226 lung): > 100 µM
- TGI (M14 melanoma): > 100 µM
- TGI (SNB-75 CNS): > 100 µM
- TGI (SF-539 CNS): > 100 µM

Structure (SMILES): S=c1nc(N2CCCCC2)ss1
- TGI (HCC-2998 colon): 30 µM
- TGI (UACC-257 melanoma): 49.9 µM
- TGI (SK-MEL-28 melanoma): 36.4 µM
- TGI (EKVX NSCLC): 55.8 µM
- TGI (HL-60(TB) leukemia): 44.3 µM
- TGI (NCI-H226 lung): > 100 µM
- TGI (M14 melanoma): 47.7 µM
- TGI (SNB-75 CNS): 77 µM
- TGI (SF-539 CNS): 36.6 µM

Structure (SMILES): CC(=O)/C=C/c1ccc(C)cc1
- TGI (HCC-2998 colon): > 100 µM
- TGI (UACC-257 melanoma): > 100 µM
- TGI (SK-MEL-28 melanoma): > 100 µM
- TGI (EKVX NSCLC): > 100 µM
- TGI (HL-60(TB) leukemia): > 100 µM
- TGI (NCI-H226 lung): > 100 µM
- TGI (M14 melanoma): > 100 µM
- TGI (SNB-75 CNS): > 100 µM
- TGI (SF-539 CNS): > 100 µM

Structure (SMILES): Cc1[nH]nc2c1N=C(c1ccccc1Cl)c1cc([N+](=O)[O-])ccc1N2
- GI50 (HCC-2998 colon): 14.6 µM
- TGI (HCC-2998 colon): > 25 µM
- GI50 (UACC-257 melanoma): > 25 µM
- TGI (UACC-257 melanoma): > 25 µM
- GI50 (SK-MEL-28 melanoma): > 25 µM
- TGI (SK-MEL-28 melanoma): > 25 µM
- GI50 (HL-60(TB) leukemia): 0.104 µM
- TGI (HL-60(TB) leukemia): > 25 µM
- GI50 (NCI-H226 lung): 4.08 µM
- TGI (NCI-H226 lung): > 19.6 µM
- GI50 (M14 melanoma): 0.687 µM
- TGI (M14 melanoma): > 25 µM
- GI50 (SNB-75 CNS): 0.0215 µM
- GI50 (SF-539 CNS): 0.132 µM
- TGI (SF-539 CNS): > 5.27 µM
- GI50 (BT-549 breast): > 15.1 µM
- TGI (BT-549 breast): > 25 µM

Reference: PubChem BioAssay (NCI)
